Measured values published in patent US5434246A, “Parathyroid hormone derivatives” (Takeda Chemical Industries, Ltd., priority 1992, dated 1995).
Ends that are not written are not given here.

Molecular target: T1, PTH receptor (Mus musculus, UniProt P41593)
T1 construct: a mouse cranial bone-derived osteoblast-like cell strain, MC3T3-EI cells; endogenous in cells; host or cells: MC3T3-E1 mouse osteoblast-like cells
T1 sequence (P41593 27-591): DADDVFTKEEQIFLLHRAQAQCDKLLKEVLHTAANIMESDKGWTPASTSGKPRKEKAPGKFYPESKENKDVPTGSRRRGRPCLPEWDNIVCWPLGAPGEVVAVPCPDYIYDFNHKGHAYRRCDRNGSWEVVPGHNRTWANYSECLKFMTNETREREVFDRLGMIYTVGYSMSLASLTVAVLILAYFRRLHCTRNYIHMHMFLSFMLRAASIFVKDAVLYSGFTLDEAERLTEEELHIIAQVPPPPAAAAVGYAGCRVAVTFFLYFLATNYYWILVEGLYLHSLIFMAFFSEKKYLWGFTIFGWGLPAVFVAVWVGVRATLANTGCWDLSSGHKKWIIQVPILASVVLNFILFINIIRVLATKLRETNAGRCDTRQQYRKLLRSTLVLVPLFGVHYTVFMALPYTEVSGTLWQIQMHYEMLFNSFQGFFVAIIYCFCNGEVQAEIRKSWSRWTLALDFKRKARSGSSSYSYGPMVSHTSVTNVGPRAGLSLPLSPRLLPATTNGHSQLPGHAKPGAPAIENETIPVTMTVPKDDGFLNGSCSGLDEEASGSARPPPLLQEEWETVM
Assay: cAMP production in MC3T3-EI osteoblast-like cells (biological activity of PTH(1-34) derivatives)
Assay type: cell-based
Conditions: 0.01-100 nM derivative, room temperature 30 minutes, hPTH(1-34) standard = 1.00
Description: The biological activity of the PTH (1-34) derivatives was evaluated by a modified version of the method reported by Shigeno et al. in The Journal of Biological Chemistry 263, 18369-18377 (1988). A culture solution (Hank's solution, containing 20 mM N-2-hydroxyethylpiperazine-N'-2-ethanesulfonic acid-(HEPES), 0.1% bovine serum albumin and 0.5 mM isobutylmethyl-xanthine) containing a 0.01, 0.1, 1, 10 or 100 nM derivative was added in an amount of 100 μl to a mouse cranial bone-derived osteoblast-like cell strain, MC3T3-EI cells, cultivated on a 96-well multiplate (Nunclon, Nunc), followed by reaction at room temperature for 30 minutes. After addition of 100 μl of 0.2N hydrochloric acid, the mixture was immersed in boiling water for 2.5 minutes, and cyclic adenosine monophosphate (cAMP) produced by a PTH receptor was extracted from the cells. The total cAMP in the culture solution and the cells was assayed using a commercial radioimmunoassay kit (cyclic AMP [^125 I] kit "Du Pont-Daiichi", Daiichi Kagaku Yakuhin).

| Compound | Biological Activity, Represented by Relative Activity to hPTH(1-34) |
| --- | --- |
| CC[C@H](C)[C@H](NC(=O)[C@H](CCC(=O)O)NC(=O)[C@H](CO)NC(=O)[C@@H](NC(=O)[C@@H](N)CO)C(C)C)C(=O)N[C@@H](CCC(N)=O)C(=O)N[C@@H](CC(C)C)C(=O)N[C@@H](CCSC)C(=O)N[C@@H](Cc1c[nH]cn1)C(=O)N[C@@H](CC(N)=O)C(=O)N[C@@H](CC(C)C)C(=O)NCC(=O)N[C@@H](CCCCN)C(=O)N[C@@H](Cc1c[nH]cn1)C(=O)N[C@@H](CC(C)C)C(=O)N[C@@H](CC(N)=O)C(=O)N[C@@H](CO)C(=O)N[C@@H](CCSC)C(=O)N[C@@H](CCC(=O)O)C(=O)N[C@@H](CCCNC(=N)N)C(=O)N[C@H](C(=O)N[C@@H](CCC(=O)O)C(=O)N[C@@H](Cc1c[nH]c2ccccc12)C(=O)N[C@@H](CC(C)C)C(=O)N[C@@H](CCCNC(=N)N)C(=O)N[C@@H](CCCCN)C(=O)N[C@H](C(=O)N[C@@H](CC(C)C)C(=O)N[C@@H](CCC(N)=O)C(=O)N[C@@H](CC(=O)O)C(=O)N[C@H](C(=O)N[C@@H](Cc1c[nH]cn1)C(=O)N[C@@H](CC(N)=O)C(=O)N[C@@H](Cc1ccccc1)C(=O)O)C(C)C)[C@@H](C)O)C(C)C [[Thr^27]hPTH(1-34)] | 0.96 |
| CC[C@H](C)[C@H](NC(=O)[C@H](CCC(=O)O)NC(=O)[C@H](CO)NC(=O)[C@@H](NC(=O)[C@@H](N)CO)C(C)C)C(=O)N[C@@H](CCC(N)=O)C(=O)N[C@@H](CC(C)C)C(=O)N[C@@H](CCSC)C(=O)N[C@@H](Cc1c[nH]cn1)C(=O)N[C@@H](CC(N)=O)C(=O)N[C@@H](CC(C)C)C(=O)NCC(=O)N[C@@H](CCCCN)C(=O)N[C@@H](Cc1c[nH]cn1)C(=O)N[C@@H](CC(C)C)C(=O)N[C@@H](CC(N)=O)C(=O)N[C@@H](CO)C(=O)N[C@@H](CCSC)C(=O)N[C@@H](CCC(=O)O)C(=O)N[C@@H](CCCNC(=N)N)C(=O)N[C@H](C(=O)N[C@@H](CCC(=O)O)C(=O)N[C@@H](Cc1c[nH]c2ccccc12)C(=O)N[C@@H](CC(C)C)C(=O)N[C@@H](CCCNC(=N)N)C(=O)N[C@@H](CCCCN)C(=O)N[C@@H](CCCCN)C(=O)N[C@@H](CC(C)C)C(=O)N[C@@H](CCC(N)=O)C(=O)N[C@@H](CC(=O)O)C(=O)N[C@H](C(=O)N[C@@H](Cc1c[nH]cn1)C(=O)N[C@@H](CC(N)=O)C(=O)N[C@@H](Cc1ccccc1)C(=O)O)C(C)C)C(C)C [hPTH(1-34), reference compound] | 1.00 |
| SVSEIQLMHNLGKHKKKMERVEWLRKHLQDVHNF [[Lys^15,16,17,His^27]hPTH (1-34), [Lys^15,16,17,His^27]hPTH(1-34)] | 7.47 |
| SVSEIQLMHNLGKHKKKMERVEWLRKKLQDVHNF [[Lys^15,16,17]hPTH (1-34), [Lys^15,16,17]hPTH(1-34)] | 7.62 |
| SVSEIQLMHNLGKHKKSMERVEWLRKHLQDVHNF [[Lys^15,16,His^27]hPTH(1-34)] | 1.49 |
| SVSEIQLMHNLGKHLKDMERVEWLRKKLQDVHNF [[Lys^16,Asp^17]hPTH(I-34), [Lys^16 Asp^17]hPTH(1-3)] | 1.24 |
| SVSEIQLMHNLGKHLKKMERVEWLRKKLQDVHNF [[Lys^16,17]hPTH(1-34)] | 8.85 |
| SVSEIQLMHNLGKHLNSMERVEWLQQQLQDVHNF [[Gln^25,26,27]hPTH (1-34), [Gln^25,26,27]hPTH(1-34)] | 0.41 |
| SVSEIQLMHNLGKHLNSMERVEWLRQQLQDVHNF [[Gln^26,27]hPTH(1-34)] | 1.19 |
| SVSEIQLMHNLGKHLNSMERVEWLRRRLQDVHNF [[Arg^26,27]hPTH (1-34), [Arg^26,27]hPTH(1-34)] | 0.98 |
| SVSEIQLMHNLGKHLRSMERVEWLRKQLQDVHNF [[Arg^16,Gln^27]hPTH(1-34)] | 2.16 |
| SVSEIQLMHNLGKKKKKMERVEWLRKKLQDVHNF [[Lys^14,15,16,17]hPTH (1-34), [Lys^14,15,16,17]hPTH(1-34)] | 6.39 |
